# Legend:
# [1] = test system: Salmonella typhi; test: Antibacterial activity against Salmonella enterica subsp. enterica serovar Typhi MTCC 733 assessed as growth inhibition at 100 ug/disk after 24 hr by agar disk diffusion method; assay type: functional; details: MTCC 733, 24 h, read-out: IZ
# [2] = test system: Klebsiella pneumoniae; test: Antibacterial activity against Klebsiella pneumoniae MTCC 109 assessed as growth inhibition after 24 hr by agar streak dilution method; assay type: functional; details: MTCC 109, 24 h
# [3] = test system: Salmonella typhi; test: Antibacterial activity against Salmonella enterica subsp. enterica serovar Typhi MTCC 733 assessed as growth inhibition after 24 hr by agar streak dilution method; assay type: functional; details: MTCC 733, 24 h
# [4] = test system: Pseudomonas aeruginosa; test: Antibacterial activity against Pseudomonas aeruginosa MTCC 741 assessed as growth inhibition after 24 hr by agar streak dilution method; assay type: functional; details: MTCC 741, 24 h
# [5] = test system: Bacillus cereus; test: Antibacterial activity against Bacillus cereus MTCC 430 assessed as growth inhibition after 24 hr by agar streak dilution method; assay type: functional; details: MTCC 430, 24 h
# [6] = test system: Staphylococcus aureus; test: Antibacterial activity against Staphylococcus aureus MTCC 96 assessed as growth inhibition after 24 hr by agar streak dilution method; assay type: functional; details: MTCC 96, 24 h
# [7] = test system: Shigella flexneri; test: Antibacterial activity against Shigella flexneri MTCC 1457 assessed as growth inhibition at 100 ug/disk after 24 hr by agar disk diffusion method; assay type: functional; details: MTCC 1457, 24 h, read-out: IZ
# [8] = test system: Proteus vulgaris; test: Antibacterial activity against Proteus vulgaris MTCC 1771 assessed as growth inhibition at 100 ug/disk after 24 hr by agar disk diffusion method; assay type: functional; details: MTCC 1771, 24 h, read-out: IZ
# [9] = test system: Bacillus cereus; test: Antibacterial activity against Bacillus cereus MTCC 430 assessed as growth inhibition at 100 ug/disk after 24 hr by agar disk diffusion method; assay type: functional; details: MTCC 430, 24 h, read-out: IZ
# [10] = test system: Staphylococcus aureus; test: Antibacterial activity against Staphylococcus aureus MTCC 96 assessed as growth inhibition at 100 ug/disk after 24 hr by agar disk diffusion method; details: MTCC 96, 24 h, read-out: IZ
# [11] = test system: Shigella flexneri; test: Antibacterial activity against Shigella flexneri MTCC 1457 assessed as growth inhibition after 24 hr by agar streak dilution method; assay type: functional; details: MTCC 1457, 24 h
# [12] = test system: Proteus vulgaris; test: Antibacterial activity against Proteus vulgaris MTCC 1771 assessed as growth inhibition after 24 hr by agar streak dilution method; assay type: functional; details: MTCC 1771, 24 h
# [13] = test system: Klebsiella pneumoniae; test: microbe, parasite or virus in culture; details: MTCC 109, 24 h, read-out: IZ
# Description: Antibacterial activity against Klebsiella pneumoniae MTCC 109 assessed as growth inhibition at 100 ug/disk after 24 hr by agar disk diffusion method
# [14] = test system: Pseudomonas aeruginosa; test: microbe, parasite or virus in culture; details: MTCC 741, 24 h, read-out: IZ
# Description: Antibacterial activity against Pseudomonas aeruginosa MTCC 741 assessed as growth inhibition at 100 ug/disk after 24 hr by agar disk diffusion method
# [15] = test system: Escherichia coli; test: microbe, parasite or virus in culture; details: MTCC 739, 24 h, read-out: IZ
# Description: Antibacterial activity against Escherichia coli MTCC 739 assessed as growth inhibition at 100 ug/disk after 24 hr by agar disk diffusion method
# [16] = test system: Salmonella typhi; test: Antibacterial activity against Salmonella enterica subsp. enterica serovar Typhi MTCC 733 assessed as growth inhibition at 3.12 to 50 ug/mL after 24 hr by agar disk diffusion method; assay type: functional
# [17] = test system: Klebsiella pneumoniae; test: Antibacterial activity against Klebsiella pneumoniae MTCC 109 assessed as growth inhibition at 3.12 to 50 ug/mL after 24 hr by agar disk diffusion method; assay type: functional
# [18] = test system: Escherichia coli; test: Antibacterial activity against Escherichia coli MTCC 739 assessed as growth inhibition after 24 hr by agar streak dilution method; assay type: functional; details: MTCC 739, 24 h
# [19] = test system: Mycobacterium tuberculosis; test: Antimycobacterial activity against Mycobacterium tuberculosis H37Rv assessed as growth inhibition at MIC after 12 to 28 days by Lowenstein and Jensen agar dilution method; assay type: functional
# [20] = test system: Mycobacterium tuberculosis; test: Antimycobacterial activity against Mycobacterium tuberculosis H37Rv assessed as growth inhibition after 12 to 28 days by Lowenstein and Jensen agar dilution method; assay type: functional
# [21] = test system: Mycobacterium tuberculosis; test: Antimycobacterial activity against Mycobacterium tuberculosis H37Rv assessed as growth inhibition at MIC measured within 10 days by BACTEC MGIT method; assay type: functional
# [22] = test system: Mycobacterium tuberculosis; test: Antimycobacterial activity against Mycobacterium tuberculosis H37Rv assessed as growth inhibition measured within 10 days by BACTEC MGIT method; assay type: functional; details: 240 h
# [23] = test system: Candida albicans; test: Antifungal activity against Candida albicans MTCC 183 assessed as growth inhibition at 3.12 to 50 ug/mL after 24 hr by agar disk diffusion method; assay type: functional
# [24] = test system: Aspergillus clavatus; test: Antifungal activity against Aspergillus clavatus MTCC 1323 assessed as growth inhibition at 3.12 to 50 ug/mL after 24 hr by agar disk diffusion method; assay type: functional
# [25] = test system: Aspergillus fumigatus; test: Antifungal activity against Aspergillus fumigatus MTCC 343 assessed as growth inhibition at 3.12 to 50 ug/mL after 24 hr by agar disk diffusion method; assay type: functional
# [26] = test system: Aspergillus niger; test: Antifungal activity against Aspergillus niger MTCC 282 assessed as growth inhibition at 3.12 to 50 ug/mL after 24 hr by agar disk diffusion method; assay type: functional
# [27] = test system: Candida albicans; test: Antifungal activity against Candida albicans MTCC 183 assessed as growth inhibition after 48 hr by agar streak dilution method; assay type: functional; details: MTCC 183, 48 h
# [28] = test system: Aspergillus clavatus; test: Antifungal activity against Aspergillus clavatus MTCC 1323 assessed as growth inhibition after 48 hr by agar streak dilution method; assay type: functional; details: MTCC 1323, 48 h
# [29] = test system: Aspergillus fumigatus; test: Antifungal activity against Aspergillus fumigatus MTCC 343 assessed as growth inhibition after 48 hr by agar streak dilution method; assay type: functional; details: MTCC 343, 48 h
# [30] = test system: Aspergillus niger; test: Antifungal activity against Aspergillus niger MTCC 282 assessed as growth inhibition after 48 hr by agar streak dilution method; assay type: functional; details: MTCC 282, 48 h
# [31] = test system: Shigella flexneri; test: Antibacterial activity against Shigella flexneri MTCC 1457 assessed as growth inhibition at 3.12 to 50 ug/mL after 24 hr by agar disk diffusion method; assay type: functional
# [32] = test system: Proteus vulgaris; test: Antibacterial activity against Proteus vulgaris MTCC 1771 assessed as growth inhibition at 3.12 to 50 ug/mL after 24 hr by agar disk diffusion method; assay type: functional
# [33] = test system: Pseudomonas aeruginosa; test: Antibacterial activity against Pseudomonas aeruginosa MTCC 741 assessed as growth inhibition at 3.12 to 50 ug/mL after 24 hr by agar disk diffusion method; assay type: functional
# [34] = test system: Escherichia coli; test: Antibacterial activity against Escherichia coli MTCC 739 assessed as growth inhibition at 3.12 to 50 ug/mL after 24 hr by agar disk diffusion method; assay type: functional
# [35] = test system: Bacillus cereus; test: Antibacterial activity against Bacillus cereus MTCC 430 assessed as growth inhibition at 3.12 to 50 ug/mL after 24 hr by agar disk diffusion method; assay type: functional
# [36] = test system: Staphylococcus aureus; test: Antibacterial activity against Staphylococcus aureus MTCC 96 assessed as growth inhibition at 3.12 to 50 ug/mL after 24 hr by agar disk diffusion method; assay type: functional
# [37] = test system: Candida albicans; test: Antifungal activity against Candida albicans MTCC 183 assessed as growth inhibition at 100 ug/disk after 24 hr by agar disk diffusion method; assay type: functional; details: MTCC 183, 24 h, read-out: IZ
# [38] = test system: Aspergillus clavatus; test: Antifungal activity against Aspergillus clavatus MTCC 1323 assessed as growth inhibition at 100 ug/disk after 24 hr by agar disk diffusion method; assay type: functional; details: MTCC 1323, 24 h, read-out: IZ
# [39] = test system: Aspergillus fumigatus; test: Antifungal activity against Aspergillus fumigatus MTCC 343 assessed as growth inhibition at 100 ug/disk after 24 hr by agar disk diffusion method; assay type: functional; details: MTCC 343, 24 h, read-out: IZ
# [40] = test system: Aspergillus niger; test: Antifungal activity against Aspergillus niger MTCC 282 assessed as growth inhibition at 100 ug/disk after 24 hr by agar disk diffusion method; assay type: functional; details: MTCC 282, 24 h, read-out: IZ
Compound,MIC [2] [µg/mL],MIC [3] [µg/mL],MIC [4] [µg/mL],MIC [5] [µg/mL],MIC [6] [µg/mL],MIC [11] [µg/mL],MIC [12] [µg/mL],inhibition zone (IZ) [16] [mm],inhibition zone (IZ) [17] [mm],MIC [18] [µg/mL],growth inhibition (GI) [19] [%],MIC [20] [µg/mL],growth inhibition (GI) [21] [%],MIC [22] [µg/mL],inhibition zone (IZ) [23] [mm],inhibition zone (IZ) [24] [mm],MIC [27] [µg/mL],MIC [28] [µg/mL],MIC [29] [µg/mL],MIC [30] [µg/mL],further results
O=C(O)c1cn(C2CC2)c2cc(N3CCNCC3)c(F)cc2c1=O [CIPROFLOXACIN],0.78,0.39,0.78,0.39,1.56,1.56,0.39,,,,,,,,,,,,,,zone of inhibition at 100 µg/disc [1]: 30 mm; zone of inhibition at 100 µg/disc [7]: 32 mm; zone of inhibition at 100 µg/disc [8]: 31 mm; zone of inhibition at 100 µg/disc [9]: 31 mm; zone of inhibition at 100 µg/disc [10]: 30 mm; zone of inhibition at 100 µg/disc [13]: 33 mm; zone of inhibition at 100 µg/disc [14]: 33 mm; zone of inhibition at 100 µg/disc [15]: 32 mm
COc1ccc(NC(=O)CNc2ccc(-c3nc(N4CC(C)CC(C)C4)nc(N4CC(C)CC(C)C4)n3)cc2)cc1 (configuration not stated),50,25,50,25,50,50,25,20,<10,50,99,6.25,99,6.25,21,<10,25,> 50,> 50,50,inhibition zone (IZ) [25]: <10 mm; inhibition zone (IZ) [26]: 14 mm; inhibition zone (IZ) [31]: 19 mm; inhibition zone (IZ) [32]: 22 mm; inhibition zone (IZ) [33]: 22 mm; inhibition zone (IZ) [34]: 19 mm; inhibition zone (IZ) [35]: 23 mm; inhibition zone (IZ) [36]: 16 mm
CCOc1ccc2nc(NC(=O)CNc3ccc(-c4nc(N5CC(C)CC(C)C5)nc(N5CC(C)CC(C)C5)n4)cc3)sc2c1 (configuration not stated),50,50,12.5,25,6.25,50,12.5,19,24,12.5,99,6.25,99,6.25,25,16,12.5,50,50,25,inhibition zone (IZ) [25]: 16 mm; inhibition zone (IZ) [26]: 20 mm; inhibition zone (IZ) [31]: 17 mm; inhibition zone (IZ) [32]: 26 mm; inhibition zone (IZ) [33]: 23 mm; inhibition zone (IZ) [34]: 23 mm; inhibition zone (IZ) [35]: 24 mm; inhibition zone (IZ) [36]: 23 mm
CC1CC(C)CN(c2nc(-c3ccc(NCC(=O)Nc4ccc(Br)cc4)cc3)nc(N3CC(C)CC(C)C3)n2)C1 (configuration not stated),25,25,12.5,6.25,3.12,12.5,50,20,24,25,99,3.12,99,6.25,13,25,50,50,50,50,inhibition zone (IZ) [25]: 23 mm; inhibition zone (IZ) [26]: 12 mm; inhibition zone (IZ) [31]: 22 mm; inhibition zone (IZ) [32]: 13 mm; inhibition zone (IZ) [33]: 27 mm; inhibition zone (IZ) [34]: 19 mm; inhibition zone (IZ) [35]: 27 mm; inhibition zone (IZ) [36]: 24 mm
CC(=O)N1CCN(c2ccc(OCC3COC(Cn4ccnc4)(c4ccc(Cl)cc4Cl)O3)cc2)CC1 (configuration not stated) [KETOCONAZOLE],,,,,,,,,,,,,,,,,1.56,0.78,0.78,1.56,zone of inhibition at 100 µg/disc [37]: 33 mm; zone of inhibition at 100 µg/disc [38]: 31 mm; zone of inhibition at 100 µg/disc [39]: 29 mm; zone of inhibition at 100 µg/disc [40]: 30 mm

# Source: ChEMBL document CHEMBL3046161, “Synthesis of potential antitubercular and antimicrobial s-triazine-based scaffolds via Suzuki cross-coupling reaction” (2013)
